The results in this text go back to patent publication US7763656B2, “Use of Acetylamino benzoic acid compounds for nonsense suppression and the treatment of disease” (PTC Therapeutics, Inc., priority 2002, dated 2010).

For `Cc1ccc(C(C)C)c(OCC(=O)Nc2cccc(C(=O)O)c2)c1` [Compound 40, 3-[2-(2-Isopropyl-5-methyl-phenoxy)-acetylamino]-benzoic acid], the melting point lay within 211 to 213 °C. In turn, `Cc1ccc(C(C)C)c(OC(C)C(=O)Nc2cccc(C(=O)O)c2)c1` (stereo not shown) [Compound 41, 3-[2-(2-Isopropyl-5-methyl-phenoxy)-propionylamino]-benzoic acid] came in with a melting point of 161 to 163 °C.

Regarding `Cc1cccc(OCC(=O)Nc2cccc(C(=O)O)c2)c1` [Compound 42, 3-[2-(5-Methyl-phenoxy)-acetylamino]-benzoic acid], the melting point fell in the range of 200 to 201 °C. The molecule `CC(C)c1ccccc1OCC(=O)Nc1cccc(C(=O)O)c1` [Compound 43, 3-[2-(2-Isopropyl-phenoxy)-acetylamino]-benzoic acid] returned a melting point of 168 to 170 °C. In turn, `COc1ccc(C(=O)O)cc1NC(=O)COc1cc(C)ccc1C(C)C` [Compound 44, 3-[2-(2-Isopropyl-5-methyl-phenoxy)-acetylamino]-4-methoxy-benzoic acid] displayed a melting point of 253 to 255 °C.

On to `Cc1ccc(C(C)C)cc1OCC(=O)Nc1cccc(C(=O)O)c1` [Compound 45, 3-[2-(5-Isopropyl-2-methyl-phenoxy)-acetylamino]-benzoic acid], for which the melting point lay in the range of 211 to 213 °C. Consider `Cc1cc(OC(C)C(=O)Nc2cccc(C(=O)O)c2)ccc1C(C)C` (stereo not shown) [Compound 47, 3-[2-(4-Isopropyl-3-methyl-phenoxy)-propionylamino]-benzoic acid], for which the melting point lay within 186 to 187 °C. The value for `Cc1ccc(C(=O)O)cc1NC(=O)COc1ccc(C(C)C)c(C)c1` [Compound 48, 3-{2-(4-Isopropyl-3-methyl-phenoxy)-acetylamino]-4-methyl-benzoic acid] was 188 to 189 °C.

The molecule `O=C(COc1ccc(C(=O)O)cc1)Nc1cccc(C(=O)O)c1` [Compound 50, 3-[2-(4-Carboxy-phenoxy)-acetylamino]-benzoic acid] had a melting point of 260 to 261 °C. In the case of `O=C(COc1ccc2ccccc2c1)Nc1cccc(C(=O)O)c1` [Compound 52, 3-[2-(Naphthalen-2-yloxy)-acetylamino]-benzoic acid], the melting point lay in the range of 223 to 224 °C.

Molecule `O=C(COc1ccc2c(c1)OCO2)Nc1cccc(C(=O)O)c1` [Compound 53, 3-[2-(Benzo[1,3]dioxol-5-yloxy)-acetylamino]-benzoic acid] displayed a melting point of 191 to 194 °C. The value for `O=C(COc1ccc(Cl)c(F)c1)Nc1cccc(C(=O)O)c1` [Compound 54, 3-[2-(4-Chloro-3-fluoro-phenoxy)-acetylamino]-benzoic acid] was 242 to 244 °C; that for `O=C(COc1ccc(CO)cc1)Nc1cccc(C(=O)O)c1` [Compound 55, 3-[2-(4-Hydroxymethyl-phenoxy)-acetylamino]-benzoic acid] was 209 to 212 °C. For the molecule `Cc1cc(OCC(=O)Nc2ccc(O)c(C(=O)O)c2)ccc1C(C)C` [Compound 56, 2-Hydroxy-5-[2-(4-isopropyl-3-methyl-phenoxy)-acetylamino] benzoic acid], the melting point is 101 to 103 °C. As for `Cc1cc(OCC(=O)Nc2ccc(Cl)c(C(=O)O)c2)ccc1C(C)C` [Compound 57, 2-Chloro-5-[2-(4-isopropyl-3-methyl-phenoxy)-acetylamino]-benzoic acid], the melting point lay within 174 to 175 °C.

Molecule `Cc1cc(OCC(=O)Nc2cc(F)c(F)c(C(=O)O)c2F)ccc1C(C)C` [Compound 58, 2,3,6-Trifluoro-5-[2-(4-isopropyl-3-methyl-phenoxy)-acetylamino]-benzoic acid] returned a melting point of 200 to 208 °C. For the molecule `Cc1cc(OCC(=O)Nc2cccc(C(=O)O)c2C)ccc1C(C)C` [Compound 59, 3-[2-(4-Isopropyl-3-methyl-phenoxy)-acetylamino]-2-methyl-benzoic acid], the melting point lay within 148 to 171 °C.

The molecule `CCOC(=O)/C=C/c1ccc(OCC(=O)Nc2cccc(C(=O)O)c2)cc1` [Compound 60, 3-{2-[4-(2-Ethoxycarbonyl-vinyl)-phenoxy]-acetylamino}-benzoic acid] returned a melting point of 202 to 203 °C. With `O=C(COc1ccc(OCc2ccccc2)cc1)Nc1cccc(C(=O)O)c1` [Compound 61, 3-[2-(4-Benzyloxy-phenoxy)-acetylamino]-benzoic acid], the melting point was in the range of 208 to 210 °C. Consider `N#Cc1ccc(OCC(=O)Nc2cccc(C(=O)O)c2)cc1` [Compound 62, 3-[2-(4-Cyano-phenoxy)-acetylamino]-benzoic acid], for which the melting point is 210 to 213 °C. In turn, `O=C(COc1ccc(Nc2ccc([N+](=O)[O-])cn2)cc1)Nc1cccc(C(=O)O)c1` [Compound 63, 3-{2-[4-(5-Nitro-pyridin-2-ylamino)-phenoxy]-acetylamino}-benzoic acid] displayed a melting point of 284 to 285 °C.

`O=C(COc1ccc(NC(=O)c2ccccc2)cc1)Nc1cccc(C(=O)O)c1` [Compound 64, 3-[2-(4-Benzoylamino-phenoxy)-acetylamino]-benzoic acid] yielded a melting point of 260 to 262 °C. `O=C(COc1ccc(Nc2ccccc2)cc1)Nc1cccc(C(=O)O)c1` [Compound 65, 3-[2-(4-Phenylamino-phenoxy)-acetylamino]-benzoic acid] yielded a melting point of 214 to 215 °C. `O=C(COc1cccc(Nc2ccccc2)c1)Nc1cccc(C(=O)O)c1` [Compound 66, 3-[2-(3-Phenylamino-phenoxy)-acetylamino]-benzoic acid] came in with a melting point of 189 to 191 °C.

As for `O=C(COc1ccc(Nc2ccc([N+](=O)[O-])cc2[N+](=O)[O-])cc1)Nc1cccc(C(=O)O)c1` [Compound 67, 3-{2-[4-(2,4-Dinitro-phenylamino)-phenoxy]-acetylamino}-benzoic acid], the melting point is 237 to 238 °C. The value for `O=C(COc1ccc(Oc2ccc(C(F)(F)F)cc2)cc1)Nc1cccc(C(=O)O)c1` [Compound 68, 3-{2-[4-(4-Trifluoromethyl-phenoxy)-phenoxy]-acetylamino}-benzoic acid] was 189 to 190 °C; that for `O=C(COc1ccc(Cc2ccccc2)cc1)Nc1cccc(C(=O)O)c1` [Compound 69, 3-[2-(4-Benzyl-phenoxy)-acetylamino]-benzoic acid] was 205 to 209 °C; that for `O=C(COc1ccc(Oc2ccccc2)cc1)Nc1cccc(C(=O)O)c1` [Compound 70, 3-[2-(4-Phenoxy-phenoxy)-acetylamino]-benzoic acid] was 202 to 205 °C.

On to `O=C(COc1ccc(CN2C(=O)c3ccccc3C2=O)cc1)Nc1cccc(C(=O)O)c1` [Compound 72], for which the melting point was 238 to 240 °C. Turning to `O=C(O)c1cccc(N2CCC(Oc3ccc(Cl)cc3)C2=O)c1` (stereo not shown) [Compound 75, 3-[3-(4-Chloro-phenoxy)-2-oxo-pyrrolidin-1-yl]-benzoic acid], the melting point was in the range of 192 to 193 °C. The result for `O=C(O)c1cccc(N2CCC(Oc3ccc(Br)cc3)C2=O)c1` (stereo not shown) [Compound 76, 3-[3-(4-Bromo-phenoxy)-2-oxo-pyrrolidin-1-yl]-benzoic acid] reads 196 to 197 °C; that for `O=C(COc1ccc(Cc2nn[nH]n2)cc1)Nc1cccc(C(=O)O)c1` [Compound 78, 3-{2-[4-(2H-Tetrazol-5-ylmethyl)-phenoxy]-acetylamino}-benzoic acid], 267 to 268 °C; that for `CC(C)c1ccc(COC2CCN(c3cccc(C(=O)O)c3)C2=O)cc1` (stereo not shown) [Compound 79, 3-[3-(4-Isopropyl-benzyloxy)-2-oxo-pyrrolidin-1-yl]-benzoic acid], 170 to 171 °C. The result for `CCc1ccc(OC2CCN(c3cccc(C(=O)O)c3)C2=O)cc1` (stereo not shown) [Compound 83, 3-[3-(4-Ethyl-phenoxy)-2-oxo-pyrrolidin-1-yl]-benzoic acid] reads 194 to 195 °C; that for `Cc1ccc(OC2CCN(c3cccc(C(=O)O)c3)C2=O)cc1` (stereo not shown) [Compound 84, 3-[3-(4-Methyl-phenoxy)-2-oxo-pyrrolidin-1-yl]-benzoic acid], 185 to 187 °C; that for `Cc1c(F)cc(OC2CCN(c3cccc(C(=O)O)c3)C2=O)c(F)c1F` (stereo not shown) [Compound 85, 3-[2-Oxo-3-(2,3,5-trifluoro-4-methyl-phenoxy)-pyrrolidin-1-yl]-benzoic acid], 190 to 191 °C. In turn, `O=C(O)c1cccc(N2CCC(Oc3ccc(OC(F)(F)F)cc3)C2=O)c1` (stereo not shown) [Compound 86, 3-[2-Oxo-3-(4-trifluoromethoxy-phenoxy)-pyrrolidin-1-yl]-benzoic acid] had a melting point of 190 to 191 °C. The molecule `Cc1cc(OC2CCN(c3cccc(C(=O)O)c3)C2=O)cc(C(C)C)c1` (stereo not shown) [Compound 87, 3-[3-(3-Isopropyl-5-methyl-phenoxy)-2-oxo-pyrrolidin-1-yl]-benzoic acid] showed a melting point of 134 to 138 °C.

The molecule `Cc1ccc(OC2CCN(c3cccc(C(=O)O)c3)C2=O)cc1C` (stereo not shown) [Compound 89, 3-[3-(3,4-Dimethyl-phenoxy)-2-oxo-pyrrolidin-1-yl]-benzoic acid] showed a melting point of 201 to 205 °C.

Take `Cc1cc(OCC(=O)Nc2cc(C(=O)O)ccc2Cl)ccc1C(C)C` [Example 4, 4-CHLORO-3-[2-(4-ISOPROPYL-3-METHYL-PHENOXY)-ACETYLAMINO]-BENZOIC ACID]: the melting point lay in the range of 174 to 175 °C.
